Source: patent publication US20180042227A1, “SYNERGISTIC ANTIMICROBIAL COMPOSITION” (Dow Global Technologies LLC, priority 2015, published 2018)

Key:
Type in all cases: cell-based
[1] = system: Pseudomonas aeruginosa DSM # 939; assay: Minimum Inhibitory Concentration (MIC) test and synergy index, Pseudomonas aeruginosa; conditions: alone or in the mixture, TSB pH 7.3, 30° C. for 2 days
Description: (§1) The synergism of the biocides combination of the present invention was determined using the method described by Kull, F. C., et. al in Applied Microbiology 9:538-541 (1961). […] The Minimum Inhibitory Test (MIC) is designed to evaluate the lowest concentration of a biocide, biocide blend or biocide combination to prevent bacteria, yeast, or fungi from growing in a defined broth. After incubation, the samples are rated based on visually detectable turbidity. This test was carried out with a dilution factor of 1.5 for the biocides. • 1. Test samples were prepared in equal volumes in transparent containers. The biocide dilutions were done in tryptic soy broth (TSB) at pH of 7.3 for the bacteria and in malt extract broth (MEB) at pH 5.4 for the fungi strain. • 16 samples per biocide product and species to be tested were prepared in duplicates by serial dilution with a dilution factor of 1.5. • Per strain of micro-organism two samples not containing any biocide was added as a control. • 2. […] After incubation for 1 day at 30° C. the strains were harvested with buffer pH 7.3. • The concentration of cells was assessed by using a standard viable count technique. • For the inoculum, dilutions were made in buffer pH 7.3. • Yeast culture: [table] • 4. Reading was done visually by a growth/no growth rating. […]

[2] = system: Staphylococcus Aureus DSM # 799; assay: Minimum Inhibitory Concentration (MIC) test and synergy index, Staphylococcus aureus; conditions: alone or in the mixture, TSB pH 7.3, 30° C. for 2 days
Description: as §1

[3] = system: Candida Albicans DSM # 1386; assay: Minimum Inhibitory Concentration (MIC) test and synergy index, Candida albicans; conditions: alone or in the mixture, MEB pH 5.4, 28° C. for 2 days
Description: The synergism of the biocides combination of the present invention was determined using the method described by Kull, F. C., et. al in Applied Microbiology 9:538-541 (1961). […] The Minimum Inhibitory Test (MIC) is designed to evaluate the lowest concentration of a biocide, biocide blend or biocide combination to prevent bacteria, yeast, or fungi from growing in a defined broth. After incubation, the samples are rated based on visually detectable turbidity. This test was carried out with a dilution factor of 1.5 for the biocides. • 1. Test samples were prepared in equal volumes in transparent containers. The biocide dilutions were done in tryptic soy broth (TSB) at pH of 7.3 for the bacteria and in malt extract broth (MEB) at pH 5.4 for the fungi strain. • 16 samples per biocide product and species to be tested were prepared in duplicates by serial dilution with a dilution factor of 1.5. • Per strain of micro-organism two samples not containing any biocide was added as a control. • 2. […] Reading was done visually by a growth/no growth rating. […]

SMILES: CNC(=O)c1ccccc1SSc1ccccc1C(=O)NC [DTBMA alone, dithio-2,2′-bis-benzmethylamide]
- Minimum Concentration (active ppm) to Inhibit Growth, DTBMA ([1]; DTBMA concentration): 222 active ppm
- Minimum Concentration (active ppm) to Inhibit Growth, DTBMA ([2]; DTBMA concentration): 20 active ppm
- Minimum Concentration (active ppm) to Inhibit Growth, DTBMA ([3]; DTBMA concentration): 148 active ppm

SMILES: CCCCCCCCCCCCN(CCCN)CCCN [Diamine alone, N-(3-Aminopropyl)-N-dodecylpropane-1,3-diamine]
- Minimum Concentration (active ppm) to Inhibit Growth, Diamine ([1]; Diamine concentration): 148 active ppm
- Minimum Concentration (active ppm) to Inhibit Growth, Diamine ([2]; Diamine concentration): 44 active ppm
- Minimum Concentration (active ppm) to Inhibit Growth, Diamine ([3]; Diamine concentration): 148 active ppm
